{"source": "patent US4410716A", "about": "“Dibenzo[a,d]cycloheptene derivatives and process for production thereof” (Toa Eiyo Kagaku Kogyo Co. Ltd., priority 1979, dated 1983)", "key": {"[1]": {"system": "edema (carrageenin, hind paw)", "test": "Anti-inflammatory activity: carrageenin hind paw edema in rats, oral administration", "assay_type": "in vivo, male Donryu rats", "conditions": "Rattus norvegicus, po; for inhibition in vivo at 1 mg/kg / inhibition in vivo at 5 mg/kg / inhibition in vivo at 10 mg/kg: read-out: Percent edema inhibition", "procedure": "(§1) The anti-inflammatory activity, analgesic activity and ulcerogenic activity of the novel dibenzo[a,d]cycloheptene derivatives of this invention were tested by the following methods.\nEach of test compounds was orally administered to groups of male Donryu rats weighing 130 to 150 g (8 to 10 rats per group), and one hour later, 0.1 ml of a 1% carrageenin solution was injected subcutaneously into the hind paw of each rat. After injection of carrageenin, the volume of the paw was measured at predetermined periods, and the percent inhibition against a control group was calculated."}, "[2]": {"test": "in vivo", "conditions": "rat, in vivo, po", "procedure": "as §1\n(§2) Sixteen hours later, the rats were sacrificed under ether anesthesia.\n(§3) *Calculated by the Adami's method.\n(§4) **Calculated by the LitchfieldWilcoxon's method. The parenthesized values\n(§5) show 95% confidence limits."}, "[3]": {"system": "gastric wall", "test": "in vivo", "conditions": "for Number of animals with ulcer/number of animals used: 16 hours; for Ulcer index (Mean ± SE): Adami's method", "procedure": "as §1, §2, §3, §4, §5"}, "[4]": {"system": "writhing syndromes (acetic acid)", "test": "Analgesic activity: acetic acid writhing in mice", "assay_type": "in vivo, male ICR mice", "procedure": "as §1\nUsing male ICR mice weighing 25 to 30 g (10 mice per group), there was measured the number of writhing syndromes induced when a 1% solution of acetic acid was intraperitoneally injected at a dose of 10 ml/kg. The percent inhibition against a control group was calculated."}}, "note": "Read-outs that look alike come from different tables or passages of the source."}
{"smiles": "COc1ccc2c(c1)c(CC(=O)O)c(C)n2C(=O)c1ccc(Cl)cc1", "note": "[Indomethacin, reference compound]", "values": [{"measurement": "inhibition in vivo at 1 mg/kg", "setting": "[1]; 1 h", "result": 0, "unit": "%"}, {"measurement": "inhibition in vivo at 5 mg/kg", "setting": "[1]; 1 h", "result": 3.9, "unit": "%"}, {"measurement": "inhibition in vivo at 10 mg/kg", "setting": "[1]; 1 h", "result": 37.2, "unit": "%"}, {"measurement": "inhibition in vivo at 1 mg/kg", "setting": "[1]; 2 h", "result": 20.3, "unit": "%"}, {"measurement": "inhibition in vivo at 5 mg/kg", "setting": "[1]; 2 h", "result": 31.1, "unit": "%"}, {"measurement": "inhibition in vivo at 10 mg/kg", "setting": "[1]; 2 h", "result": 45.3, "unit": "%"}, {"measurement": "ED40", "setting": "[1]; 3 h, read-out: ED40 value", "result": 9.8, "unit": "mg/kg"}, {"measurement": "inhibition in vivo at 1 mg/kg", "setting": "[1]; 3 h", "result": 6.3, "unit": "%"}, {"measurement": "inhibition in vivo at 5 mg/kg", "setting": "[1]; 3 h", "result": 25.9, "unit": "%"}, {"measurement": "inhibition in vivo at 10 mg/kg", "setting": "[1]; 3 h", "result": 41.8, "unit": "%"}, {"measurement": "inhibition in vivo at 1 mg/kg", "setting": "[1]; 4 h", "result": 10.2, "unit": "%"}, {"measurement": "inhibition in vivo at 5 mg/kg", "setting": "[1]; 4 h", "result": 31.7, "unit": "%"}, {"measurement": "inhibition in vivo at 10 mg/kg", "setting": "[1]; 4 h", "result": 40.5, "unit": "%"}, {"measurement": "TD50 at 16 h", "setting": "[2]", "result": 11.7, "unit": "mg/kg"}, {"measurement": "selectivity ratio", "setting": "[2]", "result": 1.2}, {"measurement": "Number of animals with ulcer/number of animals used", "setting": "[3]; 3.13 mg/kg oral", "result": "0/8"}, {"measurement": "Ulcer index (Mean ± SE)", "setting": "[3]; 3.13 mg/kg oral", "result": 0}, {"measurement": "Number of animals with ulcer/number of animals used", "setting": "[3]; 6.25 mg/kg oral", "result": "2/8"}, {"measurement": "Ulcer index (Mean ± SE)", "setting": "[3]; 6.25 mg/kg oral", "result": "0.37 ± 0.26"}, {"measurement": "Number of animals with ulcer/number of animals used", "setting": "[3]; 12.5 mg/kg oral", "result": "4/8"}, {"measurement": "Ulcer index (Mean ± SE)", "setting": "[3]; 12.5 mg/kg oral", "result": "1.38 ± 0.53"}, {"measurement": "Number of animals with ulcer/number of animals used", "setting": "[3]; 25.0 mg/kg oral", "result": "7/8"}, {"measurement": "Ulcer index (Mean ± SE)", "setting": "[3]; 25.0 mg/kg oral", "result": "1.88 ± 0.35"}, {"measurement": "Number of animals with ulcer/number of animals used", "setting": "[3]; 50.0 mg/kg oral", "result": "8/8"}, {"measurement": "Ulcer index (Mean ± SE)", "setting": "[3]; 50.0 mg/kg oral", "result": "3.12 ± 0.12"}, {"measurement": "Inhibition (writhing)", "setting": "[4]; 1.25 mg/kg", "result": 27.7, "unit": "%"}, {"measurement": "Number of writhing syndromes (Mean ± SE)", "setting": "[4]; 1.25 mg/kg", "result": "14.6 ± 2.35"}, {"measurement": "Inhibition (writhing)", "setting": "[4]; 2.5 mg/kg", "result": 40.6, "unit": "%"}, {"measurement": "Number of writhing syndromes (Mean ± SE)", "setting": "[4]; 2.5 mg/kg", "result": "12.0 ± 0.92"}, {"measurement": "Inhibition (writhing)", "setting": "[4]; 5.0 mg/kg", "result": 48.0, "unit": "%"}, {"measurement": "Number of writhing syndromes (Mean ± SE)", "setting": "[4]; 5.0 mg/kg", "result": "10.5 ± 1.40"}, {"measurement": "Inhibition (writhing)", "setting": "[4]; 10.0 mg/kg", "result": 62.4, "unit": "%"}, {"measurement": "Number of writhing syndromes (Mean ± SE)", "setting": "[4]; 10.0 mg/kg", "result": "7.6 ± 1.15"}, {"measurement": "Inhibition (writhing)", "setting": "[4]; 20.0 mg/kg", "result": 70.3, "unit": "%"}, {"measurement": "Number of writhing syndromes (Mean ± SE)", "setting": "[4]; 20.0 mg/kg", "result": "6.0 ± 0.94"}, {"measurement": "ED50", "setting": "[4]; Mus musculus, po, read-out: ED50 value", "result": 5, "unit": "mg/kg"}]}
